Assay results taken from PMC7587356, “High-Throughput Screening for Inhibitors of the SARS-CoV-2 Protease Using a FRET-Biosensor” (Molecules, 2020).
Where two headings read alike, the source gives them in different places.

Tests used:
SARS-CoV-2 3CLpro [1] = target: T1, SARS-CoV-2 3CLpro (Severe acute respiratory syndrome coronavirus 2, UniProt P0DTD1); assay: biochemical; assay type: biochemical
SARS-CoV-2 3CLpro [2] = target: T1, SARS-CoV-2 3CLpro; assay: biochemical; assay type: biochemical; conditions: for inhibition at 5 µM: 4 h
[3] = with 0.01% Triton X-100; mean ± SD of triplicate; 4 h, 30 °C; read-out: A) EC50 with Triton X-100
[4] = without Triton X-100; mean ± SD of triplicate; 4 h, 30 °C; read-out: B) EC50 without Triton X-100
[5] = sheet LOPAC_screen_w_protease, primary screen at 5 µM, mean of two replicates, read-out: mean (LOPAC screen with protease)
[6] = sheet LOPAC_screen_w_protease, primary screen at 5 µM, replicate 1, read-out: Replicate_1 (LOPAC screen with protease)
[7] = sheet LOPAC_screen_w_protease, primary screen at 5 µM, replicate 2, read-out: Replicate_2 (LOPAC screen with protease)
[8] = EC50 with Triton X-100 / EC50 without Triton X-100, ratio greater than 2 suggests aggregation-based inhibitor
[9] = with 0.01% Triton X-100, read-out: EC50

CN1CCc2c(cc(O)c(O)c2Cl)C(c2cccc(Cl)c2)C1 (stereo not shown) [SKF 83565]
EC50 (SARS-CoV-2 3CLpro [1]; [3]): > 20 µM
EC50 (SARS-CoV-2 3CLpro [1]; [4]): 6.03 ± 3.63 µM

CC(=O)NCCc1ccc(O)c(O)c1 [N-Acetyldopamine]
Ratio (A/B) (SARS-CoV-2 3CLpro [1]): 1.8
EC50 (SARS-CoV-2 3CLpro [1]; [3]): 2.65 ± 0.55 µM
EC50 (SARS-CoV-2 3CLpro [1]; [4]): 1.45 ± 0.222 µM

CN(N=O)c1cc(O)ccc1O [Dephostatin, reference compound]
inhibition at 5 µM (SARS-CoV-2 3CLpro [2]; [5]): 35.5%
inhibition at 5 µM (SARS-CoV-2 3CLpro [2]; [6]): 36.5%
inhibition at 5 µM (SARS-CoV-2 3CLpro [2]; [7]): 34.6%
Ratio (A/B) (SARS-CoV-2 3CLpro [1]): 2.2
EC50 (SARS-CoV-2 3CLpro [1]; [3]): 5.03 ± 1.22 µM
EC50 (SARS-CoV-2 3CLpro [1]; [4]): 2.28 ± 0.619 µM

N=C(N)NCCSSCCNC(=N)N [GED]
Ratio (A/B) (SARS-CoV-2 3CLpro [1]; [8]): 1.6
EC50 (SARS-CoV-2 3CLpro [1]; [3]): 5.83 ± 0.664 µM
EC50 (SARS-CoV-2 3CLpro [1]; [4]): 3.64 ± 2.43 µM

O=c1cc(O)cc(/C=C/c2ccc(O)c(O)c2)o1 [Hispidin, reference compound]
inhibition at 5 µM (SARS-CoV-2 3CLpro [2]; read-out: Replicate_1 (LOPAC screen with protease)): 46.3%
inhibition at 5 µM (SARS-CoV-2 3CLpro [2]; read-out: Replicate_2 (LOPAC screen with protease)): 38.9%
inhibition at 5 µM (SARS-CoV-2 3CLpro [2]; read-out: mean (LOPAC screen with protease)): 42.6%
Ratio (A/B) (SARS-CoV-2 3CLpro [1]): 2.8
EC50 (SARS-CoV-2 3CLpro [1]; A) EC50 with Triton X-100): 5 ± 0.554 µM
EC50 (SARS-CoV-2 3CLpro [1]; B) EC50 without Triton X-100): 1.81 ± 0.828 µM

O=C(O)c1cc[c]([Hg][Cl])cc1 [4-Chloromercuribenzoic acid, reference compound]
mean (LOPAC screen with protease) (SARS-CoV-2 3CLpro [2]; sheet LOPAC_screen_w_protease, primary screen at 5 µM, mean of two replicates): 103.38
Replicate_1 (LOPAC screen with protease) (SARS-CoV-2 3CLpro [2]; sheet LOPAC_screen_w_protease, primary screen at 5 µM, replicate 1): 104.085
Replicate_2 (LOPAC screen with protease) (SARS-CoV-2 3CLpro [2]; sheet LOPAC_screen_w_protease, primary screen at 5 µM, replicate 2): 102.675
Ratio (A/B) (SARS-CoV-2 3CLpro [1]): 0.9
EC50 (SARS-CoV-2 3CLpro [1]; [9]): 0.085 µM
EC50 (SARS-CoV-2 3CLpro [1]; [4]): 0.095 ± 0.007 µM

C=CCN1CCc2c(cc(O)c(O)c2Br)C(c2ccccc2)C1 (stereo not drawn) [R(+)-6-Bromo-APB]
EC50 (SARS-CoV-2 3CLpro [1]; [3]): > 20 µM
EC50 (SARS-CoV-2 3CLpro [1]; [4]): > 20 µM

N=c1c[n+](N2CCOCC2)[n-]o1 [3-Morpholinosydnonimine]
Ratio (A/B) (SARS-CoV-2 3CLpro [1]): 1.1
EC50 (SARS-CoV-2 3CLpro [1]; [3]): 5.66 ± 0.445 µM
EC50 (SARS-CoV-2 3CLpro [1]; [4]): 4.97 ± 2.38 µM

Oc1cc(O)c2c(c1)O[C@H](c1ccc(O)c(O)c1)[C@@H](O)C2 [(+)-Catechin]
EC50 (SARS-CoV-2 3CLpro [1]; [3]): > 20 µM
EC50 (SARS-CoV-2 3CLpro [1]; [4]): 11.3 ± 6.55 µM

O=C(N[C@@H](Cc1ccccc1)C(=O)CCl)OCc1ccccc1 [ZPCK, Z-L-Phe chloromethyl ketone]
Ratio (A/B) (SARS-CoV-2 3CLpro [1]): 1.7
EC50 (SARS-CoV-2 3CLpro [1]; [3]): 0.234 ± 0.085 µM
EC50 (SARS-CoV-2 3CLpro [1]; [9]): 0.23 µM
EC50 (SARS-CoV-2 3CLpro [1]; [4]): 0.136 ± 0.021 µM

N#C/C(=C\c1ccc(O)c(O)c1)C(N)=S [Tyrphostin 47, reference compound]
inhibition at 5 µM (SARS-CoV-2 3CLpro [2]; [5]): 28.2%
inhibition at 5 µM (SARS-CoV-2 3CLpro [2]; [6]): 30.5%
inhibition at 5 µM (SARS-CoV-2 3CLpro [2]; [7]): 25.9%
EC50 (SARS-CoV-2 3CLpro [1]; [3]): > 20 µM
EC50 (SARS-CoV-2 3CLpro [1]; [4]): 15.8 ± 10.1 µM

CN(C)C(=O)/N=N/C(=O)N(C)C [Diamide]
EC50 (SARS-CoV-2 3CLpro [1]; [3]): 17.1 ± 20.8 µM
EC50 (SARS-CoV-2 3CLpro [1]; [4]): > 20 µM

CC(=O)[C@]1(O)Cc2c(O)c3c(c(O)c2[C@@H](O[C@H]2C[C@H](N)[C@H](O)[C@H](C)O2)C1)C(=O)c1ccccc1C3=O [Idarubicin]
EC50 (SARS-CoV-2 3CLpro [1]; [3]): > 20 µM
EC50 (SARS-CoV-2 3CLpro [1]; [4]): > 20 µM

NC1CCc2cc(O)c(O)cc2C1 (stereo not shown) [6,7-ADTN]
Ratio (A/B) (SARS-CoV-2 3CLpro [1]): 1.1
EC50 (SARS-CoV-2 3CLpro [1]; [3]): 2.38 ± 0.257 µM
EC50 (SARS-CoV-2 3CLpro [1]; [4]): 2.12 ± 0.727 µM

CC(C)C[C@H](N)CS [l-Leucinethiol]
Ratio (A/B) (SARS-CoV-2 3CLpro [1]): 2.2
EC50 (SARS-CoV-2 3CLpro [1]; [3]): 4.38 ± 0.77 µM
EC50 (SARS-CoV-2 3CLpro [1]; [4]): 1.95 ± 0.11 µM

Oc1ccc2c3c1O[C@H]1c4[nH]c5c(c4C[C@@]4(O)[C@@H](C2)N(CC2CC2)CC[C@]314)C[C@@]1(O)[C@H]2Cc3ccc(O)c4c3[C@@]1(CCN2CC1CC1)[C@H]5O4 [nor-Binaltorphimine]
Ratio (A/B) (SARS-CoV-2 3CLpro [1]; [8]): 2.0
EC50 (SARS-CoV-2 3CLpro [1]; [3]): 5.2 ± 1.16 µM
EC50 (SARS-CoV-2 3CLpro [1]; [4]): 2.6 ± 1.49 µM

O=C(O)Cc1ccc(O)c(O)c1 [DOPAC]
Ratio (A/B) (SARS-CoV-2 3CLpro [1]): 1.3
EC50 (SARS-CoV-2 3CLpro [1]; [3]): 3.09 ± 0.226 µM
EC50 (SARS-CoV-2 3CLpro [1]; [4]): 2.46 ± 0.117 µM

Oc1cc2c(c(Cl)c1O)CCNCC2c1ccccc1 (racemic) [(±)-6-Chloro-PB]
Ratio (A/B) (SARS-CoV-2 3CLpro [1]): 1.4
EC50 (SARS-CoV-2 3CLpro [1]; [3]): 1.44 ± 0.353 µM
EC50 (SARS-CoV-2 3CLpro [1]; [4]): 1.02 ± 0.289 µM

CN1CC[C@@]2(C)c3cc(O)ccc3N(C)[C@@H]12 [(−)-Eseroline]
Ratio (A/B) (SARS-CoV-2 3CLpro [1]): 1.3
EC50 (SARS-CoV-2 3CLpro [1]; [3]): 0.994 ± 0.197 µM
EC50 (SARS-CoV-2 3CLpro [1]; [4]): 0.738 ± 0.201 µM

N.S=C(S)N1CCCC1 [APDC]
Ratio (A/B) (SARS-CoV-2 3CLpro [1]): 0.8
EC50 (SARS-CoV-2 3CLpro [1]; [3]): 1.23 ± 0.064 µM
EC50 (SARS-CoV-2 3CLpro [1]; [4]): 1.53 ± 0.697 µM

Cc1ccc(S(=O)(=O)N[C@@H](CCCCN)C(=O)CCl)cc1 [TLCK, Tosyl-L-Lys chloromethyl ketone]
EC50 (SARS-CoV-2 3CLpro [1]; [3]): 10.6 ± 0.881 µM
EC50 (SARS-CoV-2 3CLpro [1]; [9]): 10.6 µM
EC50 (SARS-CoV-2 3CLpro [1]; [4]): > 20 µM

NC[C@@H]1O[C@H](C23CC4CC(CC(C4)C2)C3)Cc2c1ccc(O)c2O [A-77636]
Ratio (A/B) (SARS-CoV-2 3CLpro [1]): 1.6
EC50 (SARS-CoV-2 3CLpro [1]; read-out: A) EC50 with Triton X-100): 3.79 ± 0.63 µM
EC50 (SARS-CoV-2 3CLpro [1]; read-out: B) EC50 without Triton X-100): 2.34 ± 0.783 µM

C[N+](C)(C)CCC(=O)c1cccc2ccccc12 [alpha-NETA, 2-(alpha-Naphthoyl)ethyltrimethylammonium]
Ratio (A/B) (SARS-CoV-2 3CLpro [1]): 0.9
EC50 (SARS-CoV-2 3CLpro [1]; [3]): 0.227 ± 0.014 µM
EC50 (SARS-CoV-2 3CLpro [1]; [4]): 0.243 ± 0.051 µM
